From US8541588B2, “Sulfonamide derivatives” (Pfizer Limited, priority 2009, dated 2013)

Molecular target: T1, Nav1.7 (or SCN9A) channel; HEK cells stably transfected with hSCN9A (Homo sapiens, UniProt Q15858)
T1 construct: expressed in transfected cells
Assay: Nav1.7 block, PatchXpress 7000 automated whole-cell voltage clamp, estimated IC50 (EIC50)
Format: cell-based
Conditions: estimated IC50; hSCN9A HEK cells, PatchXpress platform; Examples 283-814

T1 sequence (Q15858 whole entry): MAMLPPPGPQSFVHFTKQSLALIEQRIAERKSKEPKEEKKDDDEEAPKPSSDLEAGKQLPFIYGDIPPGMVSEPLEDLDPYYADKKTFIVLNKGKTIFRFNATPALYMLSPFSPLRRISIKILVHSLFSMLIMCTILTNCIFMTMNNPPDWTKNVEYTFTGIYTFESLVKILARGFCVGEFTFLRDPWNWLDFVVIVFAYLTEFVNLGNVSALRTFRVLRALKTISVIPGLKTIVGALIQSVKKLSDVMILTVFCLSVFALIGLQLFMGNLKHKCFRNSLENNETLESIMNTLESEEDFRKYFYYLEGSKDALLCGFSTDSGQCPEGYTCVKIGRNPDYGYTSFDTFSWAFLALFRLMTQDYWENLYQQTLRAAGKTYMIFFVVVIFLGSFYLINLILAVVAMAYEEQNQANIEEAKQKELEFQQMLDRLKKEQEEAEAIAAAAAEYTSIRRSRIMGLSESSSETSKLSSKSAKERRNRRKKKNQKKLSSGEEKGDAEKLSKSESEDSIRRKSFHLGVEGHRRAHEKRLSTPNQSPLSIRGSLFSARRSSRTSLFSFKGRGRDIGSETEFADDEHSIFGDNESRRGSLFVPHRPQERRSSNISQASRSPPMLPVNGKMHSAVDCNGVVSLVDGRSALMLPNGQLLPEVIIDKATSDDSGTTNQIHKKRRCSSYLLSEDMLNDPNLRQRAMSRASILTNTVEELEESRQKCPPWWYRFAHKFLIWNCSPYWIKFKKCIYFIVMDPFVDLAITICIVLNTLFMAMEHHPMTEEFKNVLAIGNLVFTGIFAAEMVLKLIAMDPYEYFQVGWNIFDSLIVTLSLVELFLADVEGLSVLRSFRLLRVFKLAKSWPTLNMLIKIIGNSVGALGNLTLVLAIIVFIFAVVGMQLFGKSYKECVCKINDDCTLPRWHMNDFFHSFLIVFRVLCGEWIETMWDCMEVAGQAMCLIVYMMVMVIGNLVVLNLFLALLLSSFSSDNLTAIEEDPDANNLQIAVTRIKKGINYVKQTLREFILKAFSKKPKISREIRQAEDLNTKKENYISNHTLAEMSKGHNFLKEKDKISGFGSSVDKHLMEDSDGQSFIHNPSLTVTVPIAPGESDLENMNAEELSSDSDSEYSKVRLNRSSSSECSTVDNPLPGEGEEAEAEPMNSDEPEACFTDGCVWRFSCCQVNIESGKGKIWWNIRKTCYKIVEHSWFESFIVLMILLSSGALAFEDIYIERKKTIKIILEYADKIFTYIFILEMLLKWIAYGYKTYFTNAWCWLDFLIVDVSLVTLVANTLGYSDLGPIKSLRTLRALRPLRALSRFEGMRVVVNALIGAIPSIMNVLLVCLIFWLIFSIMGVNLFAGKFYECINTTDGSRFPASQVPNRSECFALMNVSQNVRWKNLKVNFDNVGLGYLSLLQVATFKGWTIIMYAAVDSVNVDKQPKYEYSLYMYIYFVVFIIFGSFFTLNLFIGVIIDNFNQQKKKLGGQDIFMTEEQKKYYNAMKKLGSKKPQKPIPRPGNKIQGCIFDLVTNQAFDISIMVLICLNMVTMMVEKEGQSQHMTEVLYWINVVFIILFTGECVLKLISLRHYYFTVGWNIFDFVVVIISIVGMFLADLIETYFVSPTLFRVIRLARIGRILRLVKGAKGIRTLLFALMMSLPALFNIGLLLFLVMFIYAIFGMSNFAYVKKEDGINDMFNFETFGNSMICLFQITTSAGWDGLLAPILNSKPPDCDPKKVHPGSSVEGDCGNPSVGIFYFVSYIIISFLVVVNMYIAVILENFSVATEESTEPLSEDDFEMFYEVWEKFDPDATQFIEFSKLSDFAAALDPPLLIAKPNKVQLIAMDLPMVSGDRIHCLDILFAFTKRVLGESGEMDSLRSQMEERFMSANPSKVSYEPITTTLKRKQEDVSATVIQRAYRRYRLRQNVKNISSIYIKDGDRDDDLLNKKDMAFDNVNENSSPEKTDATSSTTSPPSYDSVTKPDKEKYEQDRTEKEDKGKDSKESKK

| IC50 [µM] | SMILES |
| --- | --- |
| >1 | N#Cc1cc(S(=O)(=O)Nc2nccs2)ccc1Oc1cnn(-c2ccc(Cl)cc2Cl)c1 [Example 333, 3-cyano-4-{[1-(2,4-dichlorophenyl)-1H-pyrazol-4-yl]oxy}-N-1,3-thiazol-2-ylbenzenesulfonamide] |
| 3.4 | N#Cc1cc(S(=O)(=O)Nc2nccs2)ccc1Oc1cnn(-c2cccc(C(F)(F)F)c2)c1 [Example 334, 3-cyano-N-1,3-thiazol-2-yl-4-({1-[3-(trifluoromethyl)phenyl]-1H-pyrazol-4-yl}oxy)benzenesulfonamide] |
| 0.032 | Cn1nc(C(F)(F)F)cc1-c1ccc(Oc2ccc(S(=O)(=O)Nc3nccs3)cc2C#N)c(Cl)c1 [Example 335, 4-{2-chloro-4-[1-methyl-3-(trifluoromethyl)-1H-pyrazol-5-yl]phenoxy}-3-cyano-N-1,3-thiazol-2-ylbenzenesulfonamide] |
| 2.2 | N#Cc1cc(S(=O)(=O)Nc2nccs2)ccc1Oc1ccc(Cl)c(Cn2cncn2)c1 [Example 336, 4-[4-chloro-3-(1H-1,2,4-triazol-1-ylmethyl)phenoxy]-3-cyano-N-1,3-thiazol-2-ylbenzenesulfonamide] |
| 2.5 | CCn1nc(C(F)(F)F)cc1-c1ccc(Oc2ccc(S(=O)(=O)Nc3ccon3)cc2C#N)cc1 [Example 337, 3-cyano-4-{4-[1-ethyl-3-(trifluoromethyl)-1H-pyrazol-5-yl]phenoxy}-N-isoxazol-3-ylbenzenesulfonamide] |
| 1.8 | CCn1nc(C(F)(F)F)cc1-c1ccc(Oc2ccc(S(=O)(=O)Nc3ncc(F)cn3)cc2C#N)cc1 [Example 338, 3-cyano-4-{4-[1-ethyl-3-(trifluoromethyl)-1H-pyrazol-5-yl]phenoxy}-N-(5-fluoropyrimidin-2-yl)benzenesulfonamide] |
| 15 | CCn1nc(C(F)(F)F)cc1-c1ccc(Oc2ccc(S(=O)(=O)Nc3ncccc3Cl)cc2C#N)cc1 [Example 339, N-(3-chloropyridin-2-yl)-3-cyano-4-{4-[1-ethyl-3-(trifluoromethyl)-1H-pyrazol-5-yl]phenoxy}benzenesulfonamide] |
| 34 | CCn1nc(C(F)(F)F)cc1-c1ccc(Oc2ccc(S(=O)(=O)Nc3ccc(C(F)(F)F)cn3)cc2C#N)cc1 [Example 340, 3-cyano-4-{4-[1-ethyl-3-(trifluoromethyl)-1H-pyrazol-5-yl]phenoxy}-N-[5-(trifluoromethyl)pyridin-2-yl]benzenesulfonamide] |
| 3.6 | CCn1nc(C(F)(F)F)cc1-c1ccc(Oc2ccc(S(=O)(=O)Nc3cnsn3)cc2C#N)cc1 [Example 341, 3-cyano-4-{4-[1-ethyl-3-(trifluoromethyl)-1H-pyrazol-5-yl]phenoxy}-N-1,2,5-thiadiazol-3-ylbenzenesulfonamide] |
| 18 | CCn1nc(C(F)(F)F)cc1-c1ccc(Oc2ccc(S(=O)(=O)Nc3cc(C#N)ccn3)cc2C#N)cc1 [Example 342, 3-cyano-N-(4-cyanopyridin-2-yl)-4-{4-[1-ethyl-3-(trifluoromethyl)-1H-pyrazol-5-yl]phenoxy}benzenesulfonamide] |
| >10 | CCn1nc(C(F)(F)F)cc1-c1ccc(Oc2ccc(S(=O)(=O)Nc3ccc(C#N)cn3)cc2C#N)cc1 [Example 343, 3-cyano-N-(5-cyanopyridin-2-yl)-4-{4-[1-ethyl-3-(trifluoromethyl)-1H-pyrazol-5-yl]phenoxy}benzenesulfonamide] |
| 0.3 | Cn1nccc1-c1cc(F)ccc1Oc1ccc(S(=O)(=O)Nc2ncc(F)s2)cc1F [Example 347, 3-fluoro-4-[4-fluoro-2-(1-methyl-1H-pyrazol-5-yl)phenoxy]-N-(5-fluoro-1,3-thiazol-2-yl)benzenesulfonamide] |
| >1 | Cn1ncnc1-c1cc(Cl)ccc1Oc1ccc(S(=O)(=O)Nc2ncc(F)s2)cc1F [Example 349, 4-[4-chloro-2-(1-methyl-1H-1,2,4-triazol-5-yl)phenoxy]-3-fluoro-N-(5-fluoro-1,3-thiazol-2-yl)benzenesulfonamide] |
